Laboratory results published in US12377037B2, “Cleavable comonomer strategy for accelerating removal of gel nail polish” (MASSACHUSETTS INSTITUTE OF TECHNOLOGY, priority 2022, dated 2025).

Key:
Type in all cases: physicochemical
[1] = Solubility study of DOT derivatives in nail polish (supersaturated solution, quantitative 1H NMR); settings: for Solubility (wt % in polish): nail polish (clear topcoat), supersaturated solution filtered through 0.25 μm PTFE, quantitative 1H NMR; for Notes: solubility / appearance in nail polish solution: standard nail polish solution
Description: The solubility of various DOT derivatives in nail polish was observed by generating a supersaturated solution of the compounds in nail polish (clear topcoat). The supersaturated solution was filtered through a 0.25 μm PTFE syringe filter, and a known mass of an internal NMR standard (bis-1,4-trimethylsilylbenzene) was added. The amount of the compound that was dissolved in the nail polish was then determined by quantitative ^1H NMR. The solubility was taken as the amount of the weight fraction of the compound dissolved in nail polish in a supersaturated solution.

[2] = Disappearance of visible absorbance (yellowness) of polymer compositions under UV irradiation, image analysis in ImageJ; settings: upon polymerization
Description: In some embodiments, the polymer composition is prepared by polymerizing the first, second, and third monomers. In certain embodiments, the third monomer is added subsequently to a mixture of at least the first and second monomers. When added to the polymer composition, the third monomer may contribute a visible absorbance that obscures the intended color of the polymer. […] In some embodiments, UV irradiation initiates the polymerization process. The disappearance of the visible absorbance can be measured by image analysis in ImageJ. […] As shown, the visible absorbance of polymer compositions with concentrations of 1, 2, and 5 wt % 2SiPr-DOT disappears after 20 minutes of UV irradiation. Compositions with lower concentrations show a disappearance of viable absorbance between about 5 and about 10 minutes of UV irradiation.

[3] = Bench stability noted for DOT derivatives

Solubility (wt % in polish) [1]	Colour contributed to the polymer (visible absorbance) [2]	Notes: bench stability [3]	SMILES	Solubility in nail polish, comparison in words ([1]; nail polish, versus DOT or 2S^sBu-DOT)	Notes: solubility / appearance in nail polish solution [1]
7.64 wt % in polish	does not contribute a permanent color	–	CC(C)Sc1ccc2c(c1)-c1ccccc1COC2=S [2S^iPr-DOT, 2-(isopropylthio)dibenzo[c,e]oxepine-5(7H)-thione]	superior solubility in nail polish over DOT or 2S^sBu-DOT	Yellow crystalline solid; shows superior solubility in standard nail polish solution
2.00 wt % in polish	–	not bench stable	CCC(C)Sc1ccc2c(c1)-c1ccccc1COC2=S (centres unmarked) [2S^sBu-DOT]	–	cloudy and inhomogeneous in nail polish solution
2.23 wt % in polish	–	–	S=C1OCc2ccccc2-c2ccccc21 [DOT, dibenzo[c,e]oxepine-5(7H)-thione, reference compound]	–	–
